# According to ChEMBL document CHEMBL1201862, “PubChem BioAssay data set” (2004):
# Calls of active or inactive are those of the source.
# Columns and labels:
# [1] = molecular target: ADP-ribosylation factor GTPase-activating protein 1 (Rattus norvegicus, UniProt Q62848); assay: Fluorescence polarization-based biochemical high throughput dose response screening assay to identify inhibitors of ADP-ribosylation factor GTPase activating protein 1 (ARFGAP1).; format: functional
# [2] = molecular target: T1, Methionyl-tRNA synthetase, putative (Trypanosoma brucei brucei, UniProt Q38C91); format: functional, Trypanosoma brucei brucei strain 927/4 GUTat10.1
# [3] = inhibitors of intracellular T. cruzi replication, confirmation, NIH3T3 host cells, beta-gal luminescence (AID 2044); format: functional, cell-based;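 further: intracellular parasites grown in NIH/3T3 mouse fibroblasts as host cells; luminescent beta-galactosidase reporter signal from transgenic T. cruzi replicating inside host cells; inhibitors lower the luminescence signal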
# [4] = molecular target: T2, Calpain-2 catalytic subunit (Sus scrofa, UniProt P43367); assay: pig calpain II inhibitor potency, dose response, biochemical, fluorogenic peptide substrate (AID 1420); format: functional
# T2 sequence (P43367 whole entry): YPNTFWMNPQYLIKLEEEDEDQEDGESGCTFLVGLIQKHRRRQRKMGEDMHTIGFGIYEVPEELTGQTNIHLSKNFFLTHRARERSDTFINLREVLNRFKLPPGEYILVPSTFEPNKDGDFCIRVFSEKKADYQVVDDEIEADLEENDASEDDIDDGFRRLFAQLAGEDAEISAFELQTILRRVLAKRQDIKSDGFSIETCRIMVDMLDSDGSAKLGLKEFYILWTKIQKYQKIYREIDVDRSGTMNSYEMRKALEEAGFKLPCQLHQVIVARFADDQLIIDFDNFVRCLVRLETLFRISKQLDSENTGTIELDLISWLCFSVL
# [5] = growth suppression of beta-catenin-knockout colon cells, dose response, cell-based, HCT116, human colon tumor (AID 1045); format: functional;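 further: HCT116 colon tumor cells with beta catenin knocked out; cells exposed to compound for 60 hours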
# [6] = Counterscreen for inhibitors of Trypanosoma brucei methionyl tRNA synthetase (MetRS): Luminescence-based cell-based high throughput dose response assay to identify compounds that are cytotoxic to Jurkat human T lymphocyte cells.; format: functional
# [7] = molecular target: T1, Methionyl-tRNA synthetase, putative; format: functional, Trypanosoma brucei brucei strain 927/4 GUTat10.1; remark: listed apart in the source
# Cytochrome P450 1A2 = molecular target: T3, Cytochrome P450 1A2 (Homo sapiens, UniProt P05177);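 further: PubChem cytochrome P450 panel assay, CYP1A2 panel member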
# T3 sequence (P05177 whole entry): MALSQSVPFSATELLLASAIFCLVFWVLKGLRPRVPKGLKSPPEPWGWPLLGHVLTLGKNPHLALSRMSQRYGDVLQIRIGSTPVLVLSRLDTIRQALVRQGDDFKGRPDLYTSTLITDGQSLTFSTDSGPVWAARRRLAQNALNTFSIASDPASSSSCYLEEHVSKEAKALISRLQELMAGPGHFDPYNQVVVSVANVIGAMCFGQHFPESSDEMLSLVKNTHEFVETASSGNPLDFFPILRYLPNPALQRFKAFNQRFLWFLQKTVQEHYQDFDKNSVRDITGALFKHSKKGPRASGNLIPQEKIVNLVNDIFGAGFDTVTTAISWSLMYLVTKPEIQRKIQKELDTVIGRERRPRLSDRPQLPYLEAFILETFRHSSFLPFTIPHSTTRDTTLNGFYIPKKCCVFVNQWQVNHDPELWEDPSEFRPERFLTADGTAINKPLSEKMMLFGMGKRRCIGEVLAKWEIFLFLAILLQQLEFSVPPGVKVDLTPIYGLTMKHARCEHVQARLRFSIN
# Streptokinase A = molecular target: T4, Streptokinase A (Streptococcus pyogenes serotype M1, UniProt P10520); assay: S. pyogenes streptokinase expression inhibitors, potency, dose response, plasminogen activation absorbance, OD405 (AID 1914); format: functional, Streptococcus pyogenes M1 GAS;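 further: secreted streptokinase activity via plasminogen activation per viability signal from cell pellet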
# T4 sequence (P10520 whole entry): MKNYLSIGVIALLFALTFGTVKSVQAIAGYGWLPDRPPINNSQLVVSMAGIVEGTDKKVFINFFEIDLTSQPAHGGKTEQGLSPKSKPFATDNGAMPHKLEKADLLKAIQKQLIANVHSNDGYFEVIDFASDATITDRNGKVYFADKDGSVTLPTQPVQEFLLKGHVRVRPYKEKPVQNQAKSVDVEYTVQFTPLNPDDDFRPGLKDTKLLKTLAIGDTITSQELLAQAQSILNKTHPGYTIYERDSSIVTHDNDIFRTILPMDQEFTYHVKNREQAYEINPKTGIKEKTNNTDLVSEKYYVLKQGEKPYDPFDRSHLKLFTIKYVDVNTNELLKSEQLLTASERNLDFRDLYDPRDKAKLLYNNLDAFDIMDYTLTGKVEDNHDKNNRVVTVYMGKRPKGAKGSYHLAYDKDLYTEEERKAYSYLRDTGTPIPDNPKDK
# Streptococcus = assay: Group A Streptococcus viability loss, dose response, counter-screen for streptokinase expression inhibitor project, luminescence, BacTiterGlo (AID 1915); format: functional, organism-based;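 further: potency for reduction of bacterial viability or growth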
# [8] = system: Streptococcus sp. 'group A'; assay: growth inhibition of control SK(-) GAS strain, dose response, counter-screen for streptokinase expression inhibitor project, luminescence, kanamycin, BacTiterGlo, confirmation (AID 1900); format: functional, organism-based
# [9] = cytotoxicity toward NIH3T3 fibroblasts, dose response, counter-screen, cell-based, ATP luminescence, mouse fibroblasts (AID 2010); format: functional;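 further: cells exposed to compound for about 90 hours before reading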
# [10] = growth suppression of PTEN-null colon cells, dose response, cell-based, HCT116 PTEN knockout (AID 1047); format: functional;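 further: HCT116 colon tumor cells with PTEN knocked out; cells exposed to compound for 60 hours before readout; potency for loss of cell viability measured by luminescence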
# Caspase-3 = molecular target: T5, Caspase-3 (Homo sapiens, UniProt P42574); assay: Dose-response confirmation of uHTS inhibitor hits of Sentrin-Specific Protease 8 in a Caspase-3 Fluorescence assay.; format: functional
# T5 sequence (P42574 whole entry): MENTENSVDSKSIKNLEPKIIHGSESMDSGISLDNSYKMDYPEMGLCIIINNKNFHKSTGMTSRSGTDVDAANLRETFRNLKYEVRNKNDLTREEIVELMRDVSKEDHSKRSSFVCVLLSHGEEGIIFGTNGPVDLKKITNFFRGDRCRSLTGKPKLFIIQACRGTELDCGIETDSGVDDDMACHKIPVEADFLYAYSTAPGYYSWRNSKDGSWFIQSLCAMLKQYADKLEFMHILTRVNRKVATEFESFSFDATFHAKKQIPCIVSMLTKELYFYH
# [11] = molecular target: T6, Sentrin-specific protease 8 (Homo sapiens, UniProt Q96LD8); format: functional
# T6 sequence (Q96LD8 whole entry): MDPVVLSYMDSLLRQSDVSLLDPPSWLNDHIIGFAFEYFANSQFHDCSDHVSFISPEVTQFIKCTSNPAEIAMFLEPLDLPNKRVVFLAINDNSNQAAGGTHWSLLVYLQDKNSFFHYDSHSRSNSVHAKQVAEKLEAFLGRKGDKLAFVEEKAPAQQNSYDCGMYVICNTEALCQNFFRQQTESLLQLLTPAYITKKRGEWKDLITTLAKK
# [12] = molecular target: T6, Sentrin-specific protease 8; format: functional; remark: listed apart in the source
# T1 sequence (Q38C91 whole entry): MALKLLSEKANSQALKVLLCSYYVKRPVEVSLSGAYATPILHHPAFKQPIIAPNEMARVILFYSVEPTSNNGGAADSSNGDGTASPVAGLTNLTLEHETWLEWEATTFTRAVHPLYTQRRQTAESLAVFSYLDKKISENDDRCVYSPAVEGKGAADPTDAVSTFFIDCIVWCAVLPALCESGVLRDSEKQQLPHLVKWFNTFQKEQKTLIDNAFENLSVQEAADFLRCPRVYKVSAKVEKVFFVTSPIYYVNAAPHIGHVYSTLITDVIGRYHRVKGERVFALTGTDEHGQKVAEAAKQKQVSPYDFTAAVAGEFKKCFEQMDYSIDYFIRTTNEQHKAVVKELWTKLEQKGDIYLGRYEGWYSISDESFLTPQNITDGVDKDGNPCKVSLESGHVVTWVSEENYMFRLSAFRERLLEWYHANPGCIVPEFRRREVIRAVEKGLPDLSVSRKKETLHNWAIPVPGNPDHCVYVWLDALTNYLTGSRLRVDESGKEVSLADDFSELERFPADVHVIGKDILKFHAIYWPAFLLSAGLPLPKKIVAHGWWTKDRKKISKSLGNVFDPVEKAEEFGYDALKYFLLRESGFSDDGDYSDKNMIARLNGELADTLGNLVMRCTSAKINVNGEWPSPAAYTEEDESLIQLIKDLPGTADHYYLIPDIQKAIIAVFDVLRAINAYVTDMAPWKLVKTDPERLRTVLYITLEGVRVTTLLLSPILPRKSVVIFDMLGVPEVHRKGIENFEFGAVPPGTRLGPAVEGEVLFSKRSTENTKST
# Chain of ADP-ribosylation factor GTPase-activating protein 1 (Q62848 whole entry): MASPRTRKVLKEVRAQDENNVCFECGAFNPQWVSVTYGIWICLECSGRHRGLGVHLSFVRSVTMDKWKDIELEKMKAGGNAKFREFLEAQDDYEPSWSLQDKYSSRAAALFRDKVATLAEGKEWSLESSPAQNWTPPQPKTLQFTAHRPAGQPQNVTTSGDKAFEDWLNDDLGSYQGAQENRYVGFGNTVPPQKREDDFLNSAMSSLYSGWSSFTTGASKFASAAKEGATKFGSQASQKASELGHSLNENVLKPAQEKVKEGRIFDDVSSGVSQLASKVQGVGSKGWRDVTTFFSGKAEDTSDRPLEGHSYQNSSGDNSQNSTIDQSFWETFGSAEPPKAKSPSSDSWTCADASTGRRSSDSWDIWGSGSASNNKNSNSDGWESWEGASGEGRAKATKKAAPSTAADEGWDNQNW
structure (smiles),measurement,setting,value
Cc1ccc2nc(SCC(=O)Nc3cccc(F)c3)nc(=O)n2c1,IC50,[1],44.9 µM (inactive)
CCN1C(=O)C(CC(=O)Nc2ccc(Br)cc2)N(CCCc2ccccc2)C1=S (stereo unspecified),IC50,[2],5.93 µM (active)
same,EC50,[3],2.31 µM (active)
same,IC50,[4],5.99 µM (not active)
same,EC50,[5],16.1 µM (active)
same,IC50,[6],41.5 µM (inactive)
same,IC50,[7],6.6 µM (active)
same,AC50,Cytochrome P450 1A2,14.1 µM (inconclusive)
same,EC50,Streptokinase A,1.98 µM (active)
same,EC50,Streptococcus,6.98 µM (active)
same,EC50,[8],3.15 µM (active)
same,EC50,[9],> 60 µM (not active)
same,EC50,[10],15.3 µM (active)
COc1ccc(Cc2nnc(SCC(=O)N3CCc4ccccc4C3)o2)cc1,IC50,Caspase-3,48.1 µM (active)
same,IC50,[11],10.3 µM (active)
same,IC50,[12],72.5 µM (inactive)
